Measured values as given in article PMC6966912, “Inverted Binding of Non-natural Substrates in Strictosidine Synthase Leads to a Switch of Stereochemical Outcome in Enzyme-Catalyzed Pictet–Spengler Reactions” (Journal of the American Chemical Society, 2020).

B1: OpSTR (strictosidine synthase from Ophiorrhiza pumila) (Ophiorrhiza pumila) (protein)
chain: SPEFFEFIEAPSYGPNAYAFDSDGELYASVEDGRIIKYDKPSNKFLTHAVASPIWNNALCENNTNQDLKPLCGRVYDFGFHYETQRLYIADCYFGLGFVGPDGGHAIQLATSGDGVEFKWLYALAIDQQAGFVYVTDVSTKYDDRGVQDIIRINDTTGRLIKYDPSTEEVTVLMKGLNIPGGTEVSKDGSFVLVGEFASHRILKYWLKGPKANTSEFLLKVRGPGNIKRTKDGDFWVASSDNNGITVTPRGIRFDEFGNILEVVAIPLPYKGEHIEQVQEHDGALFVGSLFHEFVGILHNYKSSVDHHQEKNSGGLNASFKEFSSF
notes: N-terminal signal peptide removed for improved expression

What was measured:
[1] = molecular target: T1, OpSTR (strictosidine synthase from Ophiorrhiza pumila) (Ophiorrhiza pumila, UniProt Q94LW9); assay: X-ray crystal structure (cocrystallization with racemate); format: binding; design: gene str; N-terminal signal peptide removed for improved expression; settings: active site, near Glu276
[2] = molecular target: T1, OpSTR (strictosidine synthase from Ophiorrhiza pumila); assay: biochemical; design: gene str
[3] = substrate: CC(C)CC=O; assay: enzyme kinetics of Pictet-Spengler reaction; format: biochemical, Ophiorrhiza pumila; settings: co-substrate tryptamine

| Molecule | X-ray crystal structure (cocrystallization with racemate) [1] | IC50 [2] | further results |
| --- | --- | --- | --- |
| CCC[C@@H]1NCCc2c1[nH]c1ccccc21 [3b, (S)-3b] | exclusively the (S)-enantiomers of 3a–c were identified in the active site of OpSTR |  |  |
| CC1NCCc2c1[nH]c1ccccc21 (racemic) [rac-3d] |  | 3400 ± 300 µM |  |
| CC[C@@H]1NCCc2c1[nH]c1ccccc21 [3c, (S)-3c] | exclusively the (S)-enantiomers of 3a–c were identified in the active site of OpSTR |  |  |
| C[C@@H]1NCCc2c1[nH]c1ccccc21 [(S)-3d] |  | 1600 ± 100 µM |  |
| CC(C)C[C@@H]1NCCc2c1[nH]c1ccccc21 [3a, (S)-3a] | exclusively the (S)-enantiomers of 3a–c were identified in the active site of OpSTR |  |  |
| B1 |  |  | Km [3]: 5.36 ± 0.83 mM |
